The target of one experiment is Ras-related protein Rab-2A (Canis lupus familiaris, UniProt P61105). Put plainly: Rab2 wildtype GTP-binding inhibitors, SAR follow-up, biochemical, additional analogs, bead-based flow cytometry, multiplex (AID 2046).
Sequence of Ras-related protein Rab-2A (P61105 whole entry): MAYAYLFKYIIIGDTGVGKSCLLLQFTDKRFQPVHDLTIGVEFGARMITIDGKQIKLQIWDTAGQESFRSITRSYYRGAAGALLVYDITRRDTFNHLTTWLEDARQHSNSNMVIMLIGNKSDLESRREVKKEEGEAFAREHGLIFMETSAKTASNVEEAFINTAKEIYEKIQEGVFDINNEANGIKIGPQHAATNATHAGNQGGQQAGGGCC
Conditions: not given
By EC50 is commonly meant the concentration at which the effect is half-maximal. Higher therefore signals a less potent agent. Regarding `O=C1N=c2ccccc2=C1c1[nH]c2ccccc2c1NO` [3-[3-(hydroxyamino)-1H-indol-2-yl]-2-indolone], the half-maximal effective concentration (EC50) is 30 µM.

Compound `O=C1N=c2c(F)cccc2=C1c1[nH]c2ccccc2c1NO` [7-fluoro-3-[3-(hydroxyamino)-1H-indol-2-yl]-2-indolone] showed an EC50 of 30 µM.

Compound `O=C1NC(=S)N/C1=C1\C(=O)Nc2ccccc21` [(3Z)-3-(5-oxo-2-sulfanylideneimidazolidin-4-ylidene)-1H-indol-2-one] had an EC50 of 30 µM.

The compound `O=C1Nc2c(Cl)cccc2C1=C1Nc2ccccc2C1=O` returned an EC50 of 30 µM.

In turn, `O=C1N=c2ccc(Br)cc2=C1c1[nH]c2ccccc2c1NO` [5-bromanyl-3-[3-(oxidanylamino)-1H-indol-2-yl]indol-2-one] yielded an EC50 of 65.2 µM.

Turning to `O=C1Nc2c(Br)cccc2C1=C1Nc2ccccc2C1=O`, it took 30 µM to reach a half-maximal effect (EC50). This EC50 lies about 2.2-fold lower than the previous one.

`O=C1NC(=O)/C(=C2/C(=O)Nc3ccccc32)N1` yielded an EC50 of 30 µM.

As for `O=C1N=c2c(Cl)cccc2=C1c1[nH]c2ccccc2c1NO` [7-chloro-3-[3-(hydroxyamino)-1H-indol-2-yl]-2-indolone], it took 30 µM to reach a half-maximal effect (EC50).

For `O=C1Nc2ccccc2/C1=C1/Nc2ccccc2C1=O` [2-[(3Z)-2-oxo-2,3-dihydro-1H-indol-3-ylidene]-2,3-dihydro-1H-indol-3-one], a half-maximal response (EC50) required 30 µM.

The compound `C[C@@H](C(=O)O)c1cccc(Oc2ccccc2)c1` [calcium;2-(3-phenoxyphenyl)propanoic acid;hydrate] had an EC50 of 30 µM.

Turning to `O=C1Nc2c(F)cccc2C1=C1Nc2ccccc2C1=O`, the concentration giving a half-maximal response (EC50) came out at 30 µM. In other words, the double-digit micromolar range.

The compound `COc1ccc2cc([C@@H](C)C(=O)O)ccc2c1` [sodium;(2R)-2-(6-methoxy-2-naphthalenyl)propanoate] returned a concentration giving a half-maximal response (EC50) of 1.74 µM. This EC50 lies about 17-fold lower than the previous one.

With `O=C1N=c2c(Br)cccc2=C1c1[nH]c2ccccc2c1NO` [7-bromanyl-3-[3-(oxidanylamino)-1H-indol-2-yl]indol-2-one], the midpoint of the response, the EC50, lay at 65.8 µM.

Turning to `O=C1Nc2ccc(Br)cc2C1=C1Nc2ccccc2C1=O`, the EC50 amounted to 30 µM.

`COc1ccc2cc([C@H](C)C(=O)O)ccc2c1` [UNM-0000306098] returned a 50% effective concentration (EC50) of 30 µM.

Staying with this experiment, now noted: inactive by the depositor's call.
`O=C(C#Cc1ccccc1)c1ccc(Cl)cc1` [UNM-0000306055]: the half-maximal effective concentration (EC50) worked out at 30 µM.

Compound `CC(=O)Oc1ccccc1C(=O)O` [2-(acetyloxy)benzoic acid] had an EC50 of 30 µM.

`COc1ccc(C(=O)C#Cc2ccccc2)cc1` [1-(4-methoxyphenyl)-3-phenyl-2-propyn-1-one] registered a concentration for a half-maximal effect (EC50) of 30 µM.

`O=C1Nc2c(Br)cccc2/C1=C1/Cc2ccccc2C1=O` [(3E)-7-bromo-3-(3-oxo-1H-inden-2-ylidene)-1H-indol-2-one] displayed a 50% effective concentration (EC50) of 30 µM.

Compound `O=C(C#Cc1ccccc1)c1ccccc1[N+](=O)[O-]` [UNM-0000306038] came in with an EC50 of 30 µM.

`O=C1Nc2ccccc2/C1=C1/Cc2ccccc2C1=O` [UNM-0000305763] yielded a 50% effective concentration (EC50) of 30 µM. In other words, the double-digit micromolar range.

For the compound `COc1cc(-c2c(C#N)c(N)n(S(=O)(=O)c3c(C(C)C)cc(C(C)C)cc3C(C)C)c2C(=O)c2ccccc2)cc(OC)c1OC` [2-azanyl-5-(phenylcarbonyl)-4-(3,4,5-trimethoxyphenyl)-1-[2,4,6-tri(propan-2-yl)phenyl]sulfonyl-pyrrole-3-carbonitrile], the response was half-maximal at 30 µM (EC50).

In turn, `O=C1Nc2cccc(Br)c2/C1=C1/Cc2ccccc2C1=O` came in with a concentration giving a half-maximal response (EC50) of 30 µM. This counts as double-digit micromolar.

`COc1ccc2cc(CC(=O)O)ccc2c1` [2-(6-methoxynaphthalen-2-yl)ethanoic acid] had an EC50 of 30 µM.

`COc1ccc(S(=O)(=O)n2c(N)c(C#N)c(-c3ccccc3)c2C(=O)c2ccc(Br)cc2)cc1`: it took 30 µM to reach a half-maximal effect (EC50).

Compound `CC(C(=O)O)c1cccc(C(=O)c2ccccc2)c1` (configuration not stated) [2-(3-benzoylphenyl)propanoic acid] returned a concentration for a half-maximal effect (EC50) of 30 µM.

Take `CCCCS(=O)(=O)n1c(N)c(C#N)c(-c2cc(OC)c(OC)c(OC)c2)c1C(=O)c1ccccc1` [2-amino-5-benzoyl-1-butylsulfonyl-4-(3,4,5-trimethoxyphenyl)-3-pyrrolecarbonitrile]: the midpoint of the response, the EC50, lay at 30 µM.

Compound `O=[N+]([O-])c1ccc(C#Cc2ccccc2)cc1` showed an EC50 of 30 µM.

In turn, `CC1=C(CC(=O)O)c2cc(F)ccc2/C1=C/c1ccc([S+](C)[O-])cc1` (configuration not stated) [UNM-0000306136] displayed an EC50 of 30 µM.

In turn, `COc1ccc(S(=O)(=O)n2c(N)c(C#N)c(-c3cc(Br)c(OC)c(OC)c3)c2C(=O)c2ccccc2)cc1` [UNM-0000305782] had a concentration giving a half-maximal response (EC50) of 30 µM.

`O=C(C#Cc1ccccc1)c1ccc(F)cc1` [UNM-0000306059] showed an EC50 of 30 µM.

The compound `O=C(C#Cc1ccccc1)c1ccccc1` [UNM-0000306039] showed an EC50 of 30 µM.

For the compound `O=C(C#Cc1ccccc1)c1ccc(OC(F)(F)F)cc1`, the EC50 was 30 µM.

Turning to `CSc1ccc(/C=C2/C(C)=C(CC(=O)O)c3cc(F)ccc32)cc1` [{6-Fluoro-2-methyl-3-[1-(4-methylsulfanyl-phenyl)-meth-(E)-ylidene]-3H-inden-1-yl}-acetic acid], the response was half-maximal at 30 µM (EC50).

Turning to `COc1ccc(S(=O)(=O)n2c(N)c(C#N)c(-c3cncc(Br)c3)c2C(=O)c2ccccc2)cc1` [2-amino-5-benzoyl-4-(5-bromo-3-pyridinyl)-1-(4-methoxyphenyl)sulfonyl-3-pyrrolecarbonitrile], a half-maximal effect (EC50) was put at 30 µM. In other words, the double-digit micromolar range.

`CC(C)Cc1ccc([C@H](C)C(=O)O)cc1` [(S)-2-(4-Isobutyl-phenyl)-propionic acid] gave an EC50 of 30 µM.

Take `O=C(C#Cc1ccccc1)c1cccnc1` [3-phenyl-1-pyridin-3-ylprop-2-yn-1-one]: it took 30 µM to reach a half-maximal effect (EC50).

Turning to `COC(=O)c1ccc(C(=O)C#Cc2ccccc2)cc1` [4-(1-oxo-3-phenylprop-2-ynyl)benzoic acid methyl ester], the midpoint of the response, the EC50, lay at 30 µM.

`N#Cc1ccc(C(=O)C#Cc2ccccc2)cc1` [4-(3-phenylprop-2-ynoyl)benzenecarbonitrile] came in with an EC50 of 30 µM.

The compound `COc1ccc(-c2c(C#N)c(N)n(S(C)(=O)=O)c2C(=O)c2ccccc2)cc1Br` [2-azanyl-4-(3-bromanyl-4-methoxy-phenyl)-1-methylsulfonyl-5-(phenylcarbonyl)pyrrole-3-carbonitrile] showed a 50% effective concentration (EC50) of 30 µM.

`O=C(C#Cc1ccccc1)c1ccc([N+](=O)[O-])cc1` [1-(4-nitrophenyl)-3-phenyl-2-propyn-1-one]: the concentration for a half-maximal effect (EC50) was determined as 30 µM.

Compound `N#Cc1c(-c2ccc(Cl)cc2)c(C(=O)c2ccccc2)n(S(=O)(=O)c2ccc([N+](=O)[O-])cc2)c1N` [UNM-0000305780] registered an EC50 of 30 µM.

(Values after BindingDB's records for doi:10.7270/Q2V40SNS (Nmmlsc, 2009).)
